According to the supplement of paper PMC6045584:
± gives the standard deviation of the averaged measurements.

How the values were obtained:
[1] = compound: Nc1nc2[nH]cnc2c(=S)[nH]1 [TIOGUANINE]; test: surviving fraction relative to DMSO-only wells; higher = less growth inhibition; details: exposure time: 5 days
Outline: (§1)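 Viability values are CellTiter-Glo luminescence readings, given as surviving fraction against the median of DMSO-only wells. The readings were taken after 10 minutes at room temperature, following five days of continuous exposure to inhibitors at 0.5, 1, 5, 10, 50, 100, 500 and 1000 nM that began 24 hours after log-phase tumour cell lines were seeded at 250–500 cells per well in 384-well plates. Every line was screened three times and kept only if replicate Pearson r >0.7 and median Z' >0.3.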

[2] = compound: CN(C)C/C=C/C(=O)Nc1cc2c(Nc3ccc(F)c(Cl)c3)ncnc2cc1O[C@H]1CCOC1 [AFATINIB]; test: as above; details: exposure time: 5 days
Outline: as §1

Question: Which results are given for MDAMB231 BREAST?
Answer: surviving fraction ([1]; 0.5 nM): 0.988 ± 0.027; surviving fraction ([1]; 1 nM): 0.994 ± 0.021; surviving fraction ([1]; 5 nM): 1.01 ± 0.027; surviving fraction ([1]; 10 nM): 0.994 ± 0.028; surviving fraction ([1]; 50 nM): 1.01 ± 0.035; surviving fraction ([1]; 100 nM): 1.01 ± 0.035; surviving fraction ([1]; 500 nM): 0.74 ± 0.039; surviving fraction ([1]; 1000 nM): 0.573 ± 0.016; surviving fraction ([2]; 0.5 nM): 1.05 ± 0.026; surviving fraction ([2]; 1 nM): 1.05 ± 0.028; surviving fraction ([2]; 5 nM): 1.06 ± 0.037; surviving fraction ([2]; 10 nM): 1.05 ± 0.027; surviving fraction ([2]; 50 nM): 1.04 ± 0.03; surviving fraction ([2]; 100 nM): 0.995 ± 0.025; surviving fraction ([2]; 500 nM): 0.668 ± 0.013; surviving fraction ([2]; 1000 nM): 0.335 ± 0.021

Question: Which surviving fraction ([1]; 0.5 nM) does the source give for HSSYII SYNOVIAL here?
Answer: 0.927 ± 0.055

Question: And the surviving fraction ([1]; 1 nM)?
Answer: 0.911 ± 0.028

Question: What about the surviving fraction ([1]; 5 nM) of the same test system?
Answer: 0.954 ± 0.05

Question: What about the surviving fraction ([1]; 10 nM) of the same test system?
Answer: 0.92 ± 0.027

Question: What about the surviving fraction ([1]; 50 nM) of the same test system?
Answer: 0.941 ± 0.055

Question: And the surviving fraction ([1]; 100 nM)?
Answer: 0.972 ± 0.049

Question: What about the surviving fraction ([1]; 500 nM) of the same test system?
Answer: 0.885 ± 0.02

Question: What about the surviving fraction ([1]; 1000 nM) of the same test system?
Answer: 0.842 ± 0.059

Question: And the surviving fraction ([2]; 0.5 nM)?
Answer: 0.981 ± 0.053

Question: And the surviving fraction ([2]; 1 nM)?
Answer: 0.965 ± 0.1

Question: And the surviving fraction ([2]; 5 nM)?
Answer: 0.941 ± 0.035

Question: And the surviving fraction ([2]; 10 nM)?
Answer: 0.984 ± 0.044

Question: And the surviving fraction ([2]; 50 nM)?
Answer: 0.94 ± 0.024

Question: And the surviving fraction ([2]; 100 nM)?
Answer: 0.922 ± 0.064

Question: What about the surviving fraction ([2]; 500 nM) of the same test system?
Answer: 0.635 ± 0.019

Question: What about the surviving fraction ([2]; 1000 nM) of the same test system?
Answer: 0.379 ± 0.017

Question: MDAMB436 BREAST was tested. Which surviving fraction ([1]; 0.5 nM) did it give?
Answer: 0.892 ± 0.057

Question: And the surviving fraction ([1]; 1 nM)?
Answer: 0.837 ± 0.05

Question: And the surviving fraction ([1]; 5 nM)?
Answer: 0.864 ± 0.059

Question: And the surviving fraction ([1]; 10 nM)?
Answer: 0.932 ± 0.028

Question: What about the surviving fraction ([1]; 50 nM) of the same test system?
Answer: 1.03 ± 0.096

Question: And the surviving fraction ([1]; 100 nM)?
Answer: 0.906 ± 0.13

Question: What about the surviving fraction ([1]; 500 nM) of the same test system?
Answer: 0.921 ± 0.094

Question: And the surviving fraction ([1]; 1000 nM)?
Answer: 0.928 ± 0.065

Question: And the surviving fraction ([2]; 0.5 nM)?
Answer: 0.924 ± 0.014

Question: What about the surviving fraction ([2]; 1 nM) of the same test system?
Answer: 0.974 ± 0.078

Question: And the surviving fraction ([2]; 5 nM)?
Answer: 0.922 ± 0.05

Question: What about the surviving fraction ([2]; 10 nM) of the same test system?
Answer: 0.905 ± 0.0097

Question: What about the surviving fraction ([2]; 50 nM) of the same test system?
Answer: 0.996 ± 0.063

Question: What about the surviving fraction ([2]; 100 nM) of the same test system?
Answer: 0.892 ± 0.035

Question: What about the surviving fraction ([2]; 500 nM) of the same test system?
Answer: 0.763 ± 0.06

Question: And the surviving fraction ([2]; 1000 nM)?
Answer: 0.647 ± 0.029

Question: For MDAMB361 BREAST, which surviving fraction ([1]; 0.5 nM) is on record?
Answer: 0.914 ± 0.011

Question: What about the surviving fraction ([1]; 1 nM) of the same test system?
Answer: 0.845 ± 0.011

Question: What about the surviving fraction ([1]; 5 nM) of the same test system?
Answer: 0.881 ± 0.0085

Question: And the surviving fraction ([1]; 10 nM)?
Answer: 0.884 ± 0.062

Question: What about the surviving fraction ([1]; 50 nM) of the same test system?
Answer: 0.846 ± 0.018

Question: And the surviving fraction ([1]; 100 nM)?
Answer: 0.955 ± 0.054

Question: What about the surviving fraction ([1]; 500 nM) of the same test system?
Answer: 0.882 ± 0.067

Question: And the surviving fraction ([1]; 1000 nM)?
Answer: 0.963 ± 0.043

Question: What about the surviving fraction ([2]; 0.5 nM) of the same test system?
Answer: 0.932 ± 0.059

Question: What about the surviving fraction ([2]; 1 nM) of the same test system?
Answer: 0.796 ± 0.034

Question: And the surviving fraction ([2]; 5 nM)?
Answer: 0.81 ± 0.041

Question: What about the surviving fraction ([2]; 10 nM) of the same test system?
Answer: 0.799 ± 0.06

Question: And the surviving fraction ([2]; 50 nM)?
Answer: 0.682 ± 0.088

Question: And the surviving fraction ([2]; 100 nM)?
Answer: 0.629 ± 0.04

Question: And the surviving fraction ([2]; 500 nM)?
Answer: 0.535 ± 0.02

Question: And the surviving fraction ([2]; 1000 nM)?
Answer: 0.459 ± 0.027

Question: Which results are given for U2OS BONE?
Answer: surviving fraction ([1]; 0.5 nM): 1.03 ± 0.058; surviving fraction ([1]; 1 nM): 1.06 ± 0.043; surviving fraction ([1]; 5 nM): 1.077 ± 0.007; surviving fraction ([1]; 10 nM): 1.04 ± 0.018; surviving fraction ([1]; 50 nM): 1.08 ± 0.05; surviving fraction ([1]; 100 nM): 1.06 ± 0.048; surviving fraction ([1]; 500 nM): 0.939 ± 0.014; surviving fraction ([1]; 1000 nM): 0.732 ± 0.042; surviving fraction ([2]; 0.5 nM): 1.075 ± 0.001; surviving fraction ([2]; 1 nM): 1.05 ± 0.044; surviving fraction ([2]; 5 nM): 1.06 ± 0.013; surviving fraction ([2]; 10 nM): 1.02 ± 0.024; surviving fraction ([2]; 50 nM): 1.05 ± 0.0055; surviving fraction ([2]; 100 nM): 1.04 ± 0.056; surviving fraction ([2]; 500 nM): 0.838 ± 0.021; surviving fraction ([2]; 1000 nM): 0.646 ± 0.0085
